Experimental data reported in PMC11539229 (Antimicrobial Agents and Chemotherapy, 2024).
≈ marks a conversion by molar mass, not a printed value. Like-named read-outs stand apart in the source and are kept apart here.

How the values were obtained:
[1] = tested on: M. tuberculosis H37Rv; assay: Acute murine model of intratracheal infection; type: in vivo, C57BL/6 mice; conditions: oral once daily for 8 days
[2] = tested on: M. tuberculosis H37Rv; assay: Extracellular MIC, broth dilution with resazurin; type: cell-based; conditions: Mycobacterium tuberculosis, read-out: Mtb MIC
Protocol: MICs against the H37Rv strain were determined by broth dilution assay in Middlebrook 7H9 medium supplemented with 10% ADC. After incubating at 37°C for 6 days, 25-µL resazurin solution (one tablet in 30-mL sterile PBS) was added to each well. Following incubation at 37°C for two additional days, the lowest concentration of drug that inhibited 90% of resazurin conversion compared to internal DMSO control wells with no drug added was used to define MIC values.

[3] = tested on: HepG2 cells; type: cell-based; conditions: human, 48 h
Protocol: HepG2 cells were cultured using Eagle’s minimum essential media (EMEM) supplemented with 10% heat-inactivated FBS, 1% non-essential amino acid (NEAA), and 1% penicillin/streptomycin. Prior to addition of the cell suspension, 250 nL of test compounds per well was pre-dispensed in tissue culture-treated black clear-bottomed 384-well plates (Greiner, cat. no. 781091) with an Echo 555 instrument. After that, 25 µL of HepG2 (cat. no. ATCC HB-8065) cells (∼3,000 cells/well) grown to confluency in EMEM supplemented with 10% heat-inactivated FBS, 1% NEAA, and 1% penicillin/streptomycin were added to each well with the reagent dispenser. Plates were allowed to incubate at 37°C with 20% O2 and 5% CO2 for 48 hrs. After incubation, the plates were equilibrated to room temperature before ATP levels were measured with the CellTiter Glo kit (Promega) as the cell viability read-out. 25 µL of CellTiter Glo substrate dissolved in the buffer was added to each well. Plates were incubated at room temperature for 10 min for stabilization of luminescence signal and read on a View Lux luminometer with excitation and emission filters of 613 and 655 nm, respectively. The Tox50 value corresponds to the concentration of the compound necessary to inhibit 50% of cell growth.

[4] = tested on: drug-susceptible, MDR and XDR M.tb clinical isolates; assay: microbe, parasite or virus in culture; type: cell-based, M. tuberculosis; conditions: Mycobacterium tuberculosis
[5] = biological target: recombinant InhA (Mycobacterium tuberculosis, UniProt P9WGR1); assay: Inhibition of recombinant InhA; type: biochemical, M. tuberculosis
Chain of recombinant InhA (P9WGR1 whole entry, looked up): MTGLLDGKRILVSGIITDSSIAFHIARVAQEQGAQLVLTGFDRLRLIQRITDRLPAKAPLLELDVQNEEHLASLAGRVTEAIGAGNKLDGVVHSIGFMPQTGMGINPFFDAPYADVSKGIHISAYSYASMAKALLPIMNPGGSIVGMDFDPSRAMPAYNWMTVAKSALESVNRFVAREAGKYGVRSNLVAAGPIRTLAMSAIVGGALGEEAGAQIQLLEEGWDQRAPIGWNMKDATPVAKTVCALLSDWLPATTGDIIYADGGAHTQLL
Protocol: GSK138 inhibited recombinant InhA with an IC50 of 0.04 µM. The minimum inhibitory concentration (MIC) was 1 µM against M. tuberculosis H37Rv, and GSK138 retained its activity against intracellular bacteria growing inside THP-1-derived macrophages in vitro (MIC 0.9 µM).

[6] = physchem
[7] = tested on: M. tuberculosis H37Rv; type: in vivo, BALB/c mice
[8] = in vivo; parameters: species or system C57BL/6 mice; conditions: iv, 1 mg/kg
Protocol: To determine the pharmacokinetic parameters, GSK138 was administered intravenously [formulation: 5% dimethyl sulfoxide (DMSO)/20% Encapsin in saline solution] as a single bolus dose in C57BL/6 mice at a target dose of 1 mg/kg. All pharmacokinetic parameters were determined in whole blood (Table 1). A moderate clearance and a moderate volume of distribution were observed.
Single-dose pharmacokinetics experiments were performed in female C57BL/6 mice, 21–29 g, obtained from Charles River Laboratories (Wilmington, MA, USA) and housed in cages in groups of three animals with water and food ad libitum. Animals were maintained for 1 week before the experiment.
The compound was dissolved in 20% Encapsin (Sigma-Aldrich), 5% DMSO (Sigma-Aldrich) in saline solution (Sigma-Aldrich) for intravenous administration, and in 1% methylcellulose (Sigma-Aldrich) in water for oral administration.
For PK analysis, 25 µL of tail blood was collected by microsampling at 0.08, 0.25, 0.5, 1.0, 2.0, 4.0, 6.0, 8.0, and 24.0 h for intravenous pharmacokinetics and 0.25, 0.5, 1.0, 2.0, 4.0, 6.0, 8.0, and 24.0 h for oral pharmacokinetics.

[9] = tested on: Madin-Darby canine kidney-MDR1; assay: in vitro; type: in vitro ADME
Protocol: (§1) Studies were performed as described by Polli et al. ([31]), with minor modifications. GF120918 was used as the inhibitor of P-gp. Apical-to-basolateral and basolateral-to-apical transports were studied across MDR1-MDCKII cell monolayers in the absence and presence of the P-gp inhibitor GF120918, and the Papp (intrinsic apparent permeability) was estimated in both directions with or without inhibitor.

[10] = in vitro; type: in vitro ADME, canine; conditions: dog, MDCK-MDR1
Protocol: as §1

[11] = tested on: H37Rv-Luc inside THP-1-derived macrophages; assay: Intracellular MIC in THP-1-derived macrophages, luciferase read-out; type: cell-based, M. tuberculosis; conditions: Mycobacterium tuberculosis, mean ± SD, read-out: Mtb intracell MIC
[12] = biological target: T1, P-glycoprotein (P-gp) (Homo sapiens, UniProt P08183); assay: Efflux ratio with and without P-gp inhibitor GF120918 in MDR1-MDCKII cells; type: in vitro ADME
T1 construct: expressed in transfected cells; host or cells: MDR1-MDCKII (Madin-Darby canine kidney cells expressing MDR1)
T1 sequence (P08183 whole entry): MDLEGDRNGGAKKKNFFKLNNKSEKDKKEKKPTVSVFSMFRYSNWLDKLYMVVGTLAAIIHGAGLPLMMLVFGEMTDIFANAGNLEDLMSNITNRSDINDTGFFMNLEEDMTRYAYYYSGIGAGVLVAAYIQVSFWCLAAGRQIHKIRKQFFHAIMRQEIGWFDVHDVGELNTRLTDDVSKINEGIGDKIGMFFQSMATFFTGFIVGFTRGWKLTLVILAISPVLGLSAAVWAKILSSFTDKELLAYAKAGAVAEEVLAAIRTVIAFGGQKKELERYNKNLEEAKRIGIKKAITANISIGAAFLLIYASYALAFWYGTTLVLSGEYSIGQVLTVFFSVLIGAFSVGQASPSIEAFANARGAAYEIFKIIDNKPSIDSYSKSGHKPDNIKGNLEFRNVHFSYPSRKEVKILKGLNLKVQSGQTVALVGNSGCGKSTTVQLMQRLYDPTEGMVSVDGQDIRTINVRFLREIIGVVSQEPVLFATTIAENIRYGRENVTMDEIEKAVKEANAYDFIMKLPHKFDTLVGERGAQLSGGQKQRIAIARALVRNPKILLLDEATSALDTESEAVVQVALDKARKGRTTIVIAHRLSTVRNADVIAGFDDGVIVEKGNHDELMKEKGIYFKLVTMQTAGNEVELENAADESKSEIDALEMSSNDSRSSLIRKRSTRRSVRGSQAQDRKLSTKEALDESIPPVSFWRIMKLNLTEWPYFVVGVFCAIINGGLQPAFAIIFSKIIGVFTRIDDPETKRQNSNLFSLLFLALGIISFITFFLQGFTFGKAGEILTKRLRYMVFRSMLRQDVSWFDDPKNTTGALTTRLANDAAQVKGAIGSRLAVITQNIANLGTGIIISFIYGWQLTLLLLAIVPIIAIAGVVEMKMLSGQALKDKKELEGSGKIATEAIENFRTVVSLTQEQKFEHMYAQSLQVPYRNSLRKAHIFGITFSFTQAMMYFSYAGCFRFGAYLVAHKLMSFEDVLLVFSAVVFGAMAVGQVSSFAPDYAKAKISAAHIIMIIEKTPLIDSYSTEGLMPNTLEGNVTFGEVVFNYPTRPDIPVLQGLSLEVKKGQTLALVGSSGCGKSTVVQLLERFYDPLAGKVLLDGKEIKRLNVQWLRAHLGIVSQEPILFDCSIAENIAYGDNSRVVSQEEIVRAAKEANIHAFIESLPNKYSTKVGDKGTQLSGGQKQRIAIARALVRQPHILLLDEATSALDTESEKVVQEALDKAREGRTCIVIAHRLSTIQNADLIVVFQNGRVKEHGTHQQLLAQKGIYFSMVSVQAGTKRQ
Protocol: The measured solubility in fasted state simulated intestinal fluid (FaSSIF) was high (Table 1). The permeability of GSK138 predicted from Madin-Darby canine kidney (MDCK) cells was also high (Table 1).
as §1

[13] = type: in vitro ADME
Protocol: To assess the susceptibility of GSK138 to P450-mediated phase I metabolism, metabolic stability was determined during incubation in CD1 mouse, Sprague Dawley rat, beagle dog, and human liver microsomes.
Human and animal microsomes and compounds were pre-incubated at 37°C prior to addition of NADPH to final protein concentration of 0.5 mg/mL and a final compound concentration of 0.5 µM. Quantitative analysis was performed using specific liquid chromatography-tandem mass spectrometry (LC-MS/MS) conditions. The half-life, elimination rate constant, and intrinsic clearance (mL/min/g tissue) were determined. The well-stirred model was used to translate to in vivo CI values (mL/min/kg).

## Cc1csc([C@](C)(O)c2nnc(Nc3cc(C)n(Cc4csc(C)n4)n3)s2)n1 [GSK138]
[1]
  effect on bacteria at the highest doses: net killing of the bacteria
[1]; 95% CI 50–67
  ED99 (dose producing a 2-log10 reduction in CFUs compared to untreated control mice): 57 mg/kg
[1]; 95% CI 125 to >290
  EDmax (dose at which 90% of the maximum bactericidal effect was achieved): 167 mg/kg
[2]
  MIC: 1 µM (≈ 0.434 µg/mL)
[3]
  HepG2 cytotoxicity Tox50: >100 µM
[4]
  MIC90: 3.75 µM (≈ 1.63 µg/mL)
[5]
  IC50: 40 nM
[6]; pH 7.4, Chrom logD
  chromatographic logD: 3.39
[6]; pH 7.4, chrom logD
  chromatographic logD: 3.38
[7]; experiment 3, GSK138 200 mg/kg
  effect of addition to PaL, R + GSK656, or RZ + GSK656: did not significantly increase the activity
[7]; experiment 3, GSK138 200 mg/kg, 4 weeks (P < 0.01) and 8 weeks (P < 0.0001)
  effect of addition to BPaL, BPa or BPa + GSK656: significantly increased the activity
[7]; experiment 4, 8 weeks of treatment
  effect of addition to BPa: additive effects
[7]; experiment 5, 4 weeks of treatment
  effect of addition to BPaL on bactericidal activity: significantly increased the bactericidal activity
[8]; female, C57BL/6, mouse
  Vd: 2.6 ± 0.3 L/kg
  clearance: 77.6 ± 16.8 mL/min/kg
[8]; mouse
  clearance: moderate
  volume of distribution: moderate
[9]
  permeability predicted from MDCK cells: high
[10]
  Papp: 37.4 ×10⁻⁶ cm/s
[11]
  MIC: 0.9 µM (≈ 0.39 µg/mL)
[12]
  P-gp substrate status from efflux ratio: P-gp substrate
[13]; dog
  in vitro clearance in liver microsomes: moderate
[13]; human
  in vitro clearance in liver microsomes: low
[13]; microsomes
  In vitro Clint dog: 1.7 mL/min/g tissue
  In vitro Clint human: 0.3 mL/min/g tissue
  In vitro Clint mouse: 4.4 mL/min/g tissue
  In vitro Clint rat: 3.5 mL/min/g tissue
[13]; mouse
  in vitro clearance in liver microsomes: moderate
[13]; rat
  in vitro clearance in liver microsomes: moderate
